Like-named read-outs stand apart in the source and are kept apart here.
Experiments:
[1] = tested on: human leukemia cell line HL-60; test: In vitro anti-cancer activity against HL-60 cells; format: cell-based; conditions: Table 1
Text: (§1) For additional details pertaining to the assay, see, for example, Shoemaker, R. H., The NCI60 Human Tumour Cell line Anticancer Drug Screen, Nature Reviews, 6: 813-823, 2006, the disclosure of which is hereby incorporated by reference in its entirety.
(§2) Briefly, the cell lines comprising the National Cancer Institute Anti-cancer Drug Screen panel were obtained and processed as described previously. After an initial acquisition, in vitro expansion was followed by cryopreservation of a large number of master stock samples, for serial rethawing at 20-passage intervals. The parental cells included the small cell lung carcinoma cell line UMCC-1, the human leukemia cell line HL-60, estrogen receptor-positive MCF7 and ZR-75B human breast carcinoma cells, and estrogen receptor-negative MDA-MB231 human breast carcinoma cells. The parental cells were grown in monolayers or in suspension in Eagle's minimum essential medium containing 10% fetal bovine serum, 2 mM L-glutamine, 100 units/ml penicillin, and 100 μg/ml streptomycin in 5% CO2 at 37° C.
(§3) The current version of COMPARE is configured to calculate pairwise correlations with the log10 of one of the specific National Cancer Institute cell line activity parameters GI50, TGI, or LC50. The GI50 is the National Cancer Institute designation for a time zero-corrected IC50 value and is defined as the concentration of an agent that causes a 50% growth inhibition. Thus, log10 (GI50 values) for a seed or probe compound is correlated with the corresponding data from each compound in a database.

[2] = tested on: human breast cancer cell line MCF-7; test: NCI anti-cancer drug screen, growth inhibition of MCF-7 cells; format: cell-based
Text: as §1, §2, §3

[3] = tested on: vincristine-resistant leukemia cell line, HL-60 VCR, that overexpresses p-glycoprotein; test: In vitro anti-cancer activity against HL-60 VCR cells; format: cell-based, human; conditions: Table 1, p-glycoprotein overexpressing
Text: as §1, §2, §3

M. tuberculosis H37Rv = test: In vitro anti-tuberculosis activity, standard GAST assay; format: cell-based, Mycobacterium tuberculosis; conditions: in words
SR (Leukemia) = test: NCI anti-cancer drug screen, growth inhibition of SR cells; format: cell-based; conditions: Homo sapiens, Table 5
Text: as §1, §2
(§4) The current version of COMPARE is configured to calculate pairwise correlations with the log10 of one of the specific National Cancer Institute cell line activity parameters GI50, TGI, or LC50. […]

PC-3 (Prostate) = test: NCI anti-cancer drug screen, growth inhibition of PC-3 cells; format: cell-based; conditions: Homo sapiens; for IC50: Table 5
Text: as §1, §2, §3
Various analogs of the oxazole triazole scaffold were prepared and tested for their anti-cancer activity in various cellular assays (testing was done as described previously).

[4] = tested on: multiple colon cancer cell lines; test: NCI assay, multiple colon cancer cell lines (FIG. 3); format: cell-based, human; conditions: applied at nanomolar concentrations
Text: FIG. 3 illustrates the potent anti-cancer activity of various compounds disclosed herein in the NCI assay using multiple colon cancer cell lines, in accordance with various embodiments.
as §1

RXF 393 (Renal) = test: NCI anti-cancer drug screen, growth inhibition of RXF 393 cells; format: cell-based; conditions: Homo sapiens, Table 5
Text: as §1, §2, §4

CAKI-1 (Renal) = test: NCI anti-cancer drug screen, growth inhibition of CAKI-1 cells; format: cell-based; conditions: Homo sapiens, Table 5
Text: as §1, §2, §4

[5] = tested on: multiple cell lines of leukemia; test: NCI assay, multiple leukemia cell lines (FIG. 2); format: cell-based, human; conditions: applied at nanomolar concentrations
Text: FIG. 2 illustrates the potent anti-cancer activity of various compounds disclosed herein in the NCI assay using multiple leukemia cell lines, in accordance with various embodiments.
as §1

cell cycle = test: Cell cycle arrest (FIG. 5); format: cell-based
Text: FIG. 5 illustrates cell cycle arrest showing G2/M-phase arrest in cells treated with 1,2,3-triazole 9c (ND-6732), in accordance with various embodiments.
Without being bound by theory, it is believed that the anti-cancer activity of various disclosed compounds disclosed herein is due to antimitotic activity.

[6] = Homo sapiens, MCF7, Table 2, SAR truncation of aryl ether moiety, read-out: MCF7 IC50
[7] = Homo sapiens, MCF7, Table 5, read-out: IC50 MCF-7 (Breast)
[8] = MCF7, Table 1, human breast cancer cell line MCF-7, read-out: IC50 MCF-7
[9] = Homo sapiens, MCF7, Table 3, SAR truncation of aryl carboxamide moiety, read-out: MCF7 IC50
[10] = Homo sapiens, MCF7, read-out: IC50 MCF-7 (Breast)

Compound | IC50 (PC-3 (Prostate)) [nM] | IC50 [2, 7] [nM] | further results
COc1cc2c(cc1O)CC[C@@H]1[C@@H]2CC[C@]2(C)[C@@H](O)CC[C@@H]12 [2-methoxyestradiol] | – | – | IC50 [1]: 9150 nM; IC50 ([2]; Table 1, human breast cancer cell line MCF-7, read-out: IC50 MCF-7): 1300 nM; IC50 [3]: 48000 nM
O=C(OCc1ccccc1)[C@@H]1COC(c2ccccc2OCc2ccccc2)=N1 [Compound 2] | – | – | anti-tuberculosis activity (M. tuberculosis H37Rv): exhibited anti-tuberculosis activity with potency similar to that of Mycobactin S
COc1ccc(CNC(=O)c2coc(-c3cccc(Cl)c3)n2)cc1OC [Compound 3] | – | – | anti-tuberculosis activity (M. tuberculosis H37Rv): active against M. tuberculosis
C#CCNC(=O)c1coc(-c2ccccc2)n1 [Compound 8a] | – | – | IC50 [2, 6]: > 20000 nM
O=C(NCc1cn(Cc2ccccc2)nn1)c1coc(-c2ccccc2)n1 [Compound 9a] | – | – | IC50 [2, 6]: 4000 nM
O=C(NCc1cn(Cc2cccc(Oc3ccccc3)c2)nn1)c1coc(-c2ccccc2)n1 [Compound 9c] | 504 | 302 | IC50 (SR (Leukemia)): 484 nM; IC50 [1]: 7900 nM; GI50 (PC-3 (Prostate)): 504 nM; growth inhibition of multiple cell lines of colon cancer [4]: ≥ 50%; IC50 (RXF 393 (Renal)): 299 nM; IC50 (CAKI-1 (Renal)): 392 nM; GI50 ([2]; Homo sapiens, MCF7): 302 nM; IC50 [2, 6]: 500 nM; IC50 [2, 8]: 500 nM; growth inhibition of multiple cell lines of leukemia [5]: ≥ 50%; cell cycle arrest (cell cycle): cell cycle arrest at the G2M phase of mitosis; IC50 ([3]; Homo sapiens, HL60/VCR): 12200 nM
O=C(NCc1cn(Cc2cccc(Oc3ccccc3)c2)nn1)c1ccccn1 [Compound 14] | – | – | IC50 [2, 9]: 70 nM
O=C(NCc1cn(Cc2cccc(Oc3ccccc3)c2)nn1)c1cocn1 [Compound 15] | – | – | IC50 [2, 9]: 1000 nM
O=C(NCc1cn(Cc2cccc(Oc3ccccc3)c2)nn1)c1ccccc1 [Compound 16] | – | – | IC50 [2, 9]: 200 nM
CC(=O)NCc1cn(Cc2cccc(Oc3ccccc3)c2)nn1 [Compound 17] | – | – | IC50 [2, 9]: 6000 nM
COc1ccc(-c2nc(C(=O)Nc3cn(Cc4ccc(Oc5ccccc5)cc4)nn3)co2)cc1 [ND-007887] | 1250 | 937 | –
COc1ccc(-c2nc(CNCc3cn(Cc4ccc(Oc5ccccc5)cc4)nn3)co2)cc1 [ND-008169] | 10000 | 3000 | –
CCCCCCCCn1cc(CNCc2coc(-c3ccc(OC)cc3)n2)nn1 [ND-008171] | > 100000 | 15000 | –
COc1ccc(-c2ccc(CNCc3cn(Cc4ccc(Oc5ccccc5)cc4)nn3)s2)cc1 [ND-008174] | 10000 | 3000 | –
CC(C)(C)[Si](C)(C)Oc1cccc(Cn2cc(CNC(=O)c3coc(-c4ccc(Cl)cc4)n3)nn2)c1 [ND-008183] | > 50000 | – | IC50 [2, 10]: 13000 nM
O=C(NCc1cn(Cc2cccc(Oc3ccccc3)c2)nn1)c1coc(-c2ccc(Cl)cc2)n1 [ND-008186] | 2400 | 4000 | –
Cc1ccc(Cn2cc(CNC(=O)c3coc(-c4ccc(C)cc4)n3)nn2)cc1 [ND-008465] | 20000 | 8000 | –
Cc1ccc(-c2nc(C(=O)NCc3cn(Cc4cccc(Oc5ccccc5)c4)nn3)co2)cc1 [ND-008467] | 1000 | 300 | –
Cc1ccc(-c2nc(C(=O)NCc3cn(Cc4cccc(O[Si](C)(C)C(C)(C)C)c4)nn3)co2)cc1 [ND-008468] | 20000 | – | IC50 [2, 10]: 15000 nM
CCCCCCCCn1cc(CNC(=O)c2coc(-c3ccc(C)cc3)n2)nn1 [ND-008469] | > 20000 | 20000 | –
Cc1ccc(-c2nc(C(=O)NCc3cn(C45CC6CC(CC(C6)C4)C5)nn3)co2)cc1 [ND-008470] | > 20000 | > 20000 | –
O=C(NCc1cn(C23CC4CC(CC(C4)C2)C3)nn1)c1coc(-c2ccc(Cl)cc2)n1 [ND-008471] | > 20000 | > 20000 | –
CC(=O)NCc1cn(Cc2cccc(Oc3ccccc3)c2)nn1 [ND-008492] | 17000 | 6000 | –
OCc1cn(Cc2cccc(Oc3ccccc3)c2)nn1 [ND-008493] | > 20000 | > 20000 | –
O=C(NCc1cn(Cc2cccc(Oc3ccccc3)c2)nn1)c1ccccn1 [ND-008504] | 300 | 150 | –
O=C(NCc1cn(Cc2cccc(Oc3ccccc3)c2)nn1)c1cocn1 [ND-008505] | 1000 | 1000 | –
O=C(NCc1cn(Cc2cccc(Oc3ccccc3)c2)nn1)c1ccccc1 [ND-008506] | 500 | 200 | –
CC[C@]1(O)C[C@H]2CN(CCc3c([nH]c4ccccc34)[C@@](C(=O)OC)(c3cc4c(cc3OC)N(C=O)[C@H]3[C@@](O)(C(=O)OC)[C@H](OC(C)=O)[C@]5(CC)C=CCN6CC[C@]43[C@@H]65)C2)C1 [vincristine] | – | – | IC50 [1]: 570 nM; IC50 [2, 8]: 200 nM; IC50 ([3]; Homo sapiens, HL60/VCR): > 100000 nM
Mycobactin S [reference compound] | – | – | anti-tuberculosis activity (M. tuberculosis H37Rv): exhibits anti-tuberculosis activity
